Data on four molecules can be found in patent US8889130B2, “Treatment of osteoarthritis and pain” (Abbvie Inc., priority 2011, dated 2014).

The test system of one test is human OA patients. Particulars: literature (Cohen et al., ACR 2007); cited from earlier work.
In the next test the test system is mice (female BALB/c). The test can be described thus: Mouse carrageenan-induced inflammatory pain model, thermal hyperalgesia (paw withdrawal latency). In kind it is in vivo. Particulars: for thermal hyperalgesia / antinociceptive effect: Example 8, 48 and 96 hours, single mAb 900 μg, diclofenac 30 mg/kg; for paw withdrawal latency, carrageenan (injured) paw: mAbs 900 μg each at 30 hours, diclofenac 30 mg/kg p.o. 60 minutes before testing. As for the experimental part:
To evaluate whether neutralization of IL-1α and IL-1β produces antinociceptive effects in inflammatory pain conditions, anti-IL-1α and anti-IL-1β mAbs were evaluated for the ability to reverse established pain in the mouse carrageenan paw model of nociceptive pain.
The efficacy of the anti-IL-1α and anti-IL-1β mAbs was evaluated when administered alone or in combination in the mouse carrageenan model (FIG. 15). At 30 hours after intraplantar carrageenan injection: 900 μg of either anti-IL-1α mAb, anti-IL-1β mAb, or their combination were administered in different groups of mice. Thermal hyperalgesia testing was performed 48 and 96 hours after carrageenan. […] The antinociceptive effect in 900 μg combination group was 53±7% at 48 hours, and 82±11% at 96 hours.
Different groups of animals were treated either with vehicle or a combination of anti-IL-1α and anti-IL-1β mAbs (100, 300, or 900 μg/mouse of each mAb) 30 hours after carrageenan injection. […] The antinociceptive effect in 900 μg treatment group was 70±9% at 48 hours, and 62±4% at 96 hours. Diclofenac (30 mg/kg), a non-steroidal, anti-inflammatory analgesic, was included as positive control in the study, and it increased the mean paw withdrawal latency of the injured paw to 7.01±0.58 s at 48 hours and 7.48±0.34 s at 96 hours when administered p.o. 60 minutes before testing (p<0.01 at both time points).

A further test deals with female BALB/c mice. The test can be described thus: CFA (Complete Freund's Adjuvant) inflammatory pain model, mechanical allodynia (von Frey). To be noted: 48 hours after CFA, diclofenac 30 mg/kg. In kind it is in vivo, mouse. The procedure:
The CFA (Complete Freund's Adjuvant) inflammatory pain model was used to test whether the anti-IL-1α and anti-IL-1β mAb combination would produce efficacy against a mechanical endpoint. Therefore, mechanical allodynia was assessed using von Frey monofilaments in animals (female BALB/c mice) 48 hours after they were injected intraplantar with CFA. […] Separate groups of animals were treated either with IgG isotype control or a combination of anti-IL-1α and anti-IL-1β mAbs (900 μg/mouse of each mAb) 30 hours after CFA injection. […] The magnitude of efficacy (% MPE) was 65.51±12.35% (FIG. 17B).

In a further test the test system is mice (male CD1). The test can be described thus: L5/L6 spinal nerve ligation (SNL) model of neuropathic pain, mechanical allodynia. Particulars: mAbs 900 μg/mouse each, gabapentin 100 mg/kg, 1 hour pretreatment. In kind it is in vivo. The procedure: Whether an anti-IL-1α and anti-IL-1β mAb combination therapy would produce efficacy in neuropathic pain conditions was examined in an L5/L6 spinal nerve ligation (SNL) model in mice (male CD1). Testing was performed six days after SNL surgery, 24 and 72 hours after animals were treated with mAb combination (900 μg/mouse of each mAb). […] The magnitude of efficacy (% MPE) was 72.20±14.39% at 24 hours and 80.62±12.33% at 72 hours (FIG. 19).

Another test deals with male DBA-1 mice. The test can be described thus: Collagen-induced arthritis mouse model (rheumatoid arthritis). Particulars: therapeutic mode; 1-3 mg/kg intraperitoneally every other day after disease onset. In kind it is in vivo. The procedure:
The therapeutic effects of anti-IL-1α, anti-IL-1β, combined anti-IL-1α/anti-IL-1β, and murine IL-1α/β DVD4-Ig, were evaluated in a collagen-induced arthritis mouse model well known in the art. Briefly, male DBA-1 mice were immunized with bovine type II collagen in CFA at the base of the tail. The mice were boosted with Zymosan intraperitoneally (i.p) at day 21. After disease onset at day 24-27, mice were selected and divided into separate groups of 10 mice each. […] To neutralize IL-1, mice were injected every other day with 1-3 mg/kg of anti-IL-1α mAb, anti-IL-1βmAb, combination of anti-IL-1α and anti-IL-1β mAbs, or murine IL-1α/β DVD4-Ig intraperitoneally. Mice were carefully examined three times a week for the visual appearance of arthritis in peripheral joints, and scores for disease activity determined.

The test system of another test is Male SV129 mice. The test can be described thus: Destabilization of medial meniscus (DMM) model of osteoarthritis, cartilage degeneration (Chambers scores). To be noted: Example 3.3.6 (FIG. 7); 8 weeks; mAbs 6 mg/kg alone or in combination. In kind it is in vivo, mouse.
From the text: (§1) Male SV129 mice weighing approximately 30 grams, housed 5/cage, were anesthetized on Day 0 with ketamine/xylazine cocktail, administered intraperitoneally (ip), and then the medial collateral ligament was exposed by blunt dissection, and transected to reflect the meniscus toward the femur. The joint space was closed with 8-0 vicryl suture. The skin was closed with wound glue. For sham surgeries, a vertical skin incision was made over the medial aspect of the knee and the joint capsule was opened. The capsule was closed with 8-0 vicryl suture and the skin was closed with wound glue. Groups of animals were then treated with intraperitoneal (ip) injections of antibody or vehicle according to the study design table below. Two sex-matched, age-matched, and strain-matched naïve mice were also included in the study. Animals were euthanized after 8 weeks of treatment, and knee joints were harvested in 10% neutral buffered formalin.
Formalin-fixed samples were decalcified, and specimens were sectioned in the frontal plane into 15 step sections each. Each section was approximately 6 μm thick, and step sections were separated by 70 μm. All slides were stained with toluidine blue (T. Blue). Slides were assessed according to the Chambers method (Chambers et al. (2001) Arthritis Rheum 44:1455-65) for cartilage degeneration (see below) by a board-certified veterinary pathologist. Each of the four cartilage surfaces, the medial femoral condyle (MFC), the medial tibial plateau (MTP), the lateral femoral condyle (LFC), and the lateral tibial plateau (LTP), was scored from 0-6 according to the scale in the table below.
as §1, with “8-0 vicryl suture, and the” for “8-0 vicryl suture and the”, “injections of anti-mIL-1α monoclonal antibody, anti-mIL-1β (alone or in combination), mIL-1α/βDVD-Ig binding protein, or vehicle” for “injections of antibody or vehicle”, “design table below (Table 24). Animals were” for “design table below. Two sex-matched, age-matched, and strain-matched naïve mice were also included in the study. Animals were”, “weeks of treatment and knee” for “weeks of treatment, and knee”
Male SV129 mice weighing approximately 30 grams had the medial collateral ligament exposed by blunt dissection, and transected to reflect the meniscus toward the femur. The joint space was closed with 8-0 vicryl suture. The skin was closed with wound glue. For sham surgeries, a vertical skin incision was made over the medial aspect of the knee and the joint capsule was opened. The capsule was closed with 8-0 vicryl suture, and the skin was closed with wound glue. Groups of animals were then treated per os (po) or via intraperitoneal (ip) injections of vehicle or treatments according to the study design table below. Three sex-matched, age-matched, and strain-matched naïve mice were also included in the study. Animals were euthanized after 4 weeks of treatment, and knee joints were harvested in 10% neutral buffered formalin.

The subject of the next test is DMM mice. The test can be described thus: DMM model of osteoarthritis, mechanical allodynia (paw withdrawal threshold). Format: in vivo, mouse. To be noted: Example 5 (FIG. 12); 6 mg/kg ip twice per week for four weeks; day 28. As for the experimental part:
The DMM model also generates measurable pain in the mice. […] The efficacy of anti-IL-1α/β therapy was studied in the DMM animal model.
The potential of anti-IL-1 therapy to ameliorate pain was tested in the DMM mouse model of OA in terms of mechanical allodynia. Dosing of the combination of IL-1α and IL-1β mAbs was initiated on the day of the surgery and was repeated twice a week for 5 weeks. Animals were treated with PBS vehicle alone, with an IgG isotype control, or with a combination of anti-IL-1α and anti-IL-1β mAbs (at a dose of 6 mg/kg for each mAb). Animals were tested weekly for paw withdrawal threshold. […] This reduction in pain was seen as early as week 1 following treatment (data not shown).
To evaluate the effect of IL-1 therapy in established pain, animals in the IgG control group with established OA and mechanical allodynia were treated on day 35 with the combination of anti-IL-1α and anti-IL-1β monoclonal antibodies and the paw withdrawal threshold was tested 24 hours later (day 36).
The potential of anti-IL-1 therapy to ameliorate pain in the DMM mouse model of OA (see, above) in terms of mechanical allodynia was further evaluated. Dosing of the combination of IL-1α and IL-1β mAbs was initiated on the day of the surgery and was repeated twice a week for 4 weeks. […]

For Anakinra: IL-1 receptor antagonist, the “efficacy in OA trials with respect to symptoms and chondroprotection” value in the test on human OA patients is “some efficacy”.

For the molecule `O=C(O)Cc1ccccc1Nc1c(Cl)cccc1Cl` [Diclofenac], the “thermal hyperalgesia / antinociceptive effect” value in the test with mice (female BALB/c) is “significant attenuation of thermal hyperalgesia”. The “paw withdrawal latency, carrageenan (injured) paw” value in the test on mice (female BALB/c) (Example 9 (FIG. 16A), at 48 hours) worked out at 7.01 ± 0.58 s; in the test on mice (female BALB/c) (Example 9 (FIG. 16B), at 96 hours) it was 7.48 ± 0.34 s. Besides, the “paw withdrawal threshold, CFA injected paw” value in the test on female BALB/c mice (mAbs 900 μg/mouse each 30 hours after CFA, 1 hour pretreatment) stood at 0.359 ± 0.088 g. Also, the “magnitude of efficacy (% MPE)” value in the test with female BALB/c mice (mAbs 900 μg/mouse each) came out at 64.51±10.20%.

Take `NCC1(CC(=O)O)CCCCC1` [gabapentin]: the “paw withdrawal threshold (von Frey)” value in the test with mice (male CD1) (at 24 hours) amounted to 0.858 ± 0.077 g; in the test with mice (male CD1) (at 72 hours), 1.138 ± 0.096 g.

B1: 9H10: mouse anti-mouse IL-1α monoclonal antibody (clone 9H10) from IL-1α/β double KO mice (antibody, V domains shown)
VH: QVILKESGPGILQPSQTLSLTCSFSGFSLSTYGTAVNWIRQPSGKGLEWLAQIGSDDRKLYNPFLKSRITLSEDTSNSQVFLKITSVDTEDSATYYCANGVMEYWGLGTSVTVSS
VL: SIVMTQTPKFLLVSAGDRVTITCKASQSVNHDVAWYQQMPGQSPKLLIYFASNRYTGVPDRFTGSGYGTDFTFTISTVQAEDLAVYFCQQDYSSPYTFGGGTKLEIKR
modifications: heavy chain variable domain of 9H10; light chain variable domain of 9H10
notes: mouse anti-mouse IL-1α monoclonal antibody (clone 9H10) from IL-1α/β double KO mice
Take B1: in the test on male DBA-1 mice, the “reduction in mean arthritis score compared to control group” value is 10%. Moreover, the “mean sum Chambers scores and mean maximum Chambers scores (cartilage degeneration)” value with Male SV129 mice is given as “not statistically significant”. Moreover, the “paw withdrawal threshold (allodynia)” value in the test on DMM mice is “allodynic (painful)”. Besides, in the test with mice (female BALB/c), the “thermal hyperalgesia / antinociceptive effect” value is on record as “no significant antinociceptive effect”.
